Source: patent US6815443B2, “5-Amino-1-pentene-3-ol substituted derivatives” (Gruenenthal GmbH, priority 2000, dated 2004)

Legend:
[1] = system: gabapentin binding site; test: gabapentin binding assay (displacement of gabapentin from its binding site)
Protocol: Gabapentin is used in the binding assay in order to investigate the binding and affinities of the selected compounds. The affinity of the compounds according to the invention is measured via the displacement of gabapentin from its binding site.

[2] = system: phenylquinone-induced writhing in male NMRI mice; test: phenylquinone-induced writhing test in mice; format: in vivo
Protocol: The investigation of the analgesic efficacy was carried out according to the phenylquinone-induced writhing test in mice (as modified by I. C. Hendershot and J. Forsaith J. Pharmacol. Exp. Ther. 1959 125, 237-240). For this purpose male NMRI mice weighing 25 to 30 g were used. Groups of 10 animals per substance dose received, 10 minutes after intravenous administration of the test substances, 0.3 ml/mouse of a 0.02% aqueous solution of phenylquinone (phenyl benzoquinone, from Sigma, Deisenhofen; solution prepared by addition of 5% of ethanol and storage in a water bath at 45° C.) applied intraperitoneally. The animals were placed individually in observation cages. The number of pain-induced stretching movements (so-called writhing reactions=contortion of the body accompanied by stretching of the rear extremities) was counted using a push-button counter 5 to 20 minutes after administration of the phenylquinone. Animals that had received only physiological saline served as controls. The number of responding animals was determined for some of the examples.

| Structure (SMILES) | % Inhibition gabapentin, 10 μmole [1] | Responding Animals/Control Animals (Writhing IV) ([2]; 10 mg/kg) | other results |
| --- | --- | --- | --- |
| CC(=Cc1ccccc1)C(O)(c1ccccc1)C(C)CN(C)C (centres unmarked) [Example 120, 5-dimethylamino-2,4-dimethyl-1,3-diphenyl-pent-1-en-3-ol] | 37% |  |  |
| CC(=Cc1ccccc1)C(O)(Cc1cccc(C)c1)C(C)CN(C)C (centres unmarked) [Example 152, 5-dimethylamino-2,4-dimethyl-3-(3-methylbenzyl)-1-phenyl-pent-1-en-3-ol] | 30% |  |  |
| CC(=Cc1ccccc1)C(O)(Cc1cccc(Cl)c1)C(C)CN(C)C (centres unmarked) [Example 156, 3-(3-chlorobenzyl)-5-dimethylamino-2,4-dimethyl-1-phenyl-pent-1-en-3-ol] | 46% |  |  |
| COc1cccc(CC(O)(C(C)=Cc2ccc(F)cc2)C(C)CN(C)C)c1 (centres unmarked) [Example 184, 5-dimethylamino-1-(4-fluorophenyl)-3-(3-methoxybenzyl)-2,4-dimethyl-pent-1-en-3-ol] | 47% |  |  |
| COc1cccc(CC(O)(C(C)=Cc2ccc(Cl)cc2)C(C)CN(C)C)c1 (centres unmarked) [Example 223, 1-(4-chlorophenyl)-5-dimethylamino-3-(3-methoxybenzyl)-2,4-dimethyl-pent-1-en-3-ol] | 40% |  |  |
| COc1cccc(C=C2CCCCC(CN(C)C)C2(O)c2ccc(Cl)cc2)c1 (centres unmarked) [Example 353, 1-(4-chlorophenyl)-2-dimethylaminomethyl-7-(3-methoxy-benzylidene)-cycloheptanol] | 44% |  |  |
| COc1ccc(C2(O)C(=Cc3cccc(OC)c3)CCCCC2CN(C)C)cc1 (centres unmarked) [Example 369, 2-dimethylaminomethyl-7-(3-methoxybenzylidene)-1-(4-methoxyphenyl)-cycloheptanol] | 43% |  |  |
| CN(C)CC1CCCCC(=Cc2ccccc2)C1(O)c1cccc(O)c1.Cl (centres unmarked) [Example 407, 2-benzylidene-7-dimethylaminomethyl-1-(3-hydroxyphenyl)-cycloheptanol, hydrochloride] |  |  | Responding Animals/Control Animals (Writhing IV) ([2]; 2.15 mg/kg): 6/10 (2.15 mg/kg) |
| COc1cccc(C=C2CCCCC(CN(C)C)C2(O)c2cccc(O)c2)c1.Cl (centres unmarked) [Example 408, 2-dimethylaminomethyl-1-(3-hydroxyphenyl)-7-(3-methoxy-benzylidene)-cycloheptanol, hydrochloride] |  | 9/10 (10 mg/kg) |  |
| COc1cccc(C2(O)C(=Cc3ccccc3)CCCCC2CN(C)C)c1.Cl (centres unmarked) [Example 409, 2-benzylidene-7-dimethylaminomethyl-1-(3-methoxyphenyl)-cycloheptanol, hydrochloride] |  | 5/10 (10 mg/kg) |  |
| CC(=Cc1ccccc1)C(O)(c1cccc(O)c1)C(C)CCN(C)C.Cl (centres unmarked) [Example 410, 3-[1-(2-dimethylaminomethyl-1-methylethyl)-1-hydroxy-2-methyl-3-phenyl-allyl]-phenol, hydrochloride] |  | 5/10 (10 mg/kg) |  |
| CC(=Cc1ccccc1)C(O)(Cc1ccc(Cl)cc1)C(C)CN(C)C.Cl (centres unmarked) [Example 411, 3-(4-chlorobenzyl)-5-dimethylamino-2,4-dimethyl-1-phenyl-pent-1-en-3-ol, hydrochloride] |  | 3/10 (10 mg/kg) |  |
| COc1cccc(C(O)(C(C)=Cc2ccccc2)C(C)CN(C)C)c1.Cl (centres unmarked) [Example 412, 5-dimethylamino-3-(3-methoxyphenyl)-2,4-dimethyl-1-phenyl-pent-1-en-3-ol, hydrochloride] |  | 9/10 (10 mg/kg) |  |
| CN(C)CC1CCCC(=Cc2ccccc2)C1(O)c1cccc(O)c1.Cl (centres unmarked) [Example 413, 3-(2-benzylidene-6-dimethylaminomethyl-1-hydroxycyclohexyl)-phenol, hydrochloride] |  | 4/10 (10 mg/kg) |  |
